Tests used:
[1] = system: 3T3F442A preadipocytes; test: Adipocyte differentiation: triglyceride accumulation (Adipored) in differentiated 3T3F442A cells; assay type: cell-based; details: 168 h, 0.3 μg/ml, 7 days differentiation, FIG. 2, read-out: inhibition (accumulation of triglycerides), optimum activity
Protocol: The Applicant has studied on the one hand the effect of a dry extract of Zanthoxylum bungeanum, and on the other hand the effect of xanthoxyline, on the process of adipocyte differentiation and proliferation. […] 3T3F442A prepadipocytes are capable of differentiating into adipocytes in the presence of insulin, 3-isobutyl-1-methylxanthine and dexamethasone (the Journal of Pharmacology and Experimental Therapeutics: RIVAL Y., 2004, 311(2): 467-475). […] 3T3F442A cells are cultured in DMEM medium (GIBCOBRL, ref 32430-027) containing 10% foetal calf serum at 37° C., 5% CO2 in a humid atmosphere. They are seeded at 5000 cells per well (96-well plate). […] The visualisation and quantification of intracellular lipid vacuoles in the differentiated cells are analysed using Adipored reagent, a fluorescent colorant specific to triglycerides (neutral and amphiphilic lipids) (Journal of Cell Biology: […]., 1985, 100: 965-973). The culture medium is removed and the cells are rinsed with phosphate buffer D-PBS (GIBCOBRL, ref 21300-058). Adipored reagent is then added. After incubation for 10 minutes at ambient temperature, the fluorescence is measured (excitation 485 nm, emission 530 nm). A histological analysis using a confocal Laser microscope (ZEISS LSM 410 Invert Laser scan Microscope) is also carried out at 543 nm.

[2] = system: Candida albicans; details: literature; cited from earlier work
[3] = system: Penicillium expansum; details: literature; cited from earlier work
[4] = system: pathogenic fungi such as Trichophyton; details: literature; cited from earlier work
[5] = system: gram-positive and gram-negative bacteria; details: literature; cited from earlier work
[6] = system: 3T3F442A preadipocytes; details: adipocyte differentiation model over a long culture period; literature; cited from earlier work

| Molecule | inhibition at 0.3 µg/mL [1] | Anti-fungal activity [2] | Anti-fungal activity [3] | Anti-fungal activity [4] | Anti-bacterial activity [5] | inhibition of the accumulation of triglycerides [6] |
| --- | --- | --- | --- | --- | --- | --- |
| COc1cc(O)c(C(C)=O)c(OC)c1 [Xanthoxyline, 4,6-dimethoxy-2-hydroxyacetophenone] | 12% | moderate | moderate | moderate | mediocre |  |
| TNFα |  |  |  |  |  | known to inhibit the accumulation of triglycerides |
